Measured values taken from PMC3671888 (Journal of medicinal chemistry, 2012).

Target: T1, recombinant human sGC (soluble guanylyl cyclase), α1 and β1 subunits (Homo sapiens, UniProt Q02108+Q02153)
T1 sequence (Q02108 1-690): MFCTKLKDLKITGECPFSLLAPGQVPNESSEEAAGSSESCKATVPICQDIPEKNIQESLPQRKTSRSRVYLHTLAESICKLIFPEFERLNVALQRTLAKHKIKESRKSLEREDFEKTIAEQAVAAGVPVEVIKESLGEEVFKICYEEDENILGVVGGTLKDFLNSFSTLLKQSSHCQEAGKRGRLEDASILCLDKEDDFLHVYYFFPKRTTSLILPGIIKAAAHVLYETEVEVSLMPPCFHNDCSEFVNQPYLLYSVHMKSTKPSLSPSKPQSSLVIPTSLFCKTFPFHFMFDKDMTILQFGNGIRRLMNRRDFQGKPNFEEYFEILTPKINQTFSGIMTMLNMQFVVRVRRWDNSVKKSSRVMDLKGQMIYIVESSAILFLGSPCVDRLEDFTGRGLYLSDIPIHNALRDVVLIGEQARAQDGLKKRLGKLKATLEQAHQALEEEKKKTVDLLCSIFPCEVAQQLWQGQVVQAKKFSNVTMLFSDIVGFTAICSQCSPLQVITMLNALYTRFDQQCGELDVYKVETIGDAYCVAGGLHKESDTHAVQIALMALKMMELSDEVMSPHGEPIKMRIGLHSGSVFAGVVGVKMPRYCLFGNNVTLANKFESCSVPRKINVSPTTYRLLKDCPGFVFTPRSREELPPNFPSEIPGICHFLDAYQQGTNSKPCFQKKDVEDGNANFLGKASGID
T1 sequence (Q02153 1-619): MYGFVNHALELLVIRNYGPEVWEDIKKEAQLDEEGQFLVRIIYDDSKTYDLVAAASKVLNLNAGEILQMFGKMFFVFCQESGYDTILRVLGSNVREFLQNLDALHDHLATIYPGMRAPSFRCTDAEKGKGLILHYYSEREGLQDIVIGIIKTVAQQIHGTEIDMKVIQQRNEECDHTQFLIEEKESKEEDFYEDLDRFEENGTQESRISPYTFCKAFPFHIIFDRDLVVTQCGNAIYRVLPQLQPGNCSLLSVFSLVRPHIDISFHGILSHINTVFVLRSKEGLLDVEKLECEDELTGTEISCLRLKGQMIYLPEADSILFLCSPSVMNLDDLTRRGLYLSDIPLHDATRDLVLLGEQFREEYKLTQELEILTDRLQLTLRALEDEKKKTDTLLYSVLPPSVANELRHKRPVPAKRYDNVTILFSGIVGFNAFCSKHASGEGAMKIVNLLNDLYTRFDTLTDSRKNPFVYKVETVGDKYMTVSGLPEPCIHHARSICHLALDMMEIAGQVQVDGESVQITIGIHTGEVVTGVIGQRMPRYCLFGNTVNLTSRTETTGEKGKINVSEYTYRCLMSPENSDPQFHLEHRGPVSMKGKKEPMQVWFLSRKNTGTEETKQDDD
Assay: [alpha-32P]GTP to […]cGMP conversion assay
Format: biochemical
Conditions: read-out: EC50 [μM] ^b; activation; preincubation with compound at 25 °C

With `C#N.C#N.C/C1=C2/NC([C@H](CC(N)=O)[C@@]2(C)CCC(=O)NCC(C)O)[C@]2(C)N=C(/C(C)=C3N=C(/C=C4N=C1[C@@H](CCC(N)=O)C\4(C)C)[C@@H](CCC(N)=O)[C@]\3(C)CC(N)=O)[C@@H](CCC(N)=O)[C@]2(C)CC(N)=O.[Co]` (stereo partly shown) [compound 1, dicyanocobinamide] as the molecule, how does the EC50 read?
Its EC50 is 34.2 µM.
